Test results published in patent US6818780B2, “P-hydroxyphenyl propionic acid derivatives as antiproliferative agents” (Consejo Superior de Investigaciones Cientificas, priority 2000, dated 2004).

Tested on: human peripheral blood mononuclear cells (CMSP)
Assay: Test on lymphocyte proliferation: human peripheral blood mononuclear cells (3H-thymidine incorporation), with or without rhIL-2
Format: cell-based
Details: 5 days; for Proliferation of human peripheral blood mononuclear cells, Con A 2 μg/ml (cpm ± DS) / Proliferation of human peripheral blood mononuclear cells, Medium (cpm ± DS) / Proliferation of human peripheral blood mononuclear cells, PHA 10 μg/ml (cpm ± DS) / Proliferation of human peripheral blood mononuclear cells, aCD3 5 μg/ml (cpm ± DS) / Proliferation of human peripheral blood mononuclear cells, aCD3 + Con A (cpm ± DS) / Proliferation of human peripheral blood mononuclear cells, aCD3 + PHA (cpm ± DS): no rhIL-2; for Proliferation of human peripheral blood mononuclear cells in the presence of rhIL-2, Con A 2 μg/ml (cpm ± DS) / Proliferation of human peripheral blood mononuclear cells in the presence of rhIL-2, Medium (cpm ± DS) / Proliferation of human peripheral blood mononuclear cells in the presence of rhIL-2, PHA 10 μg/ml (cpm ± DS) / Proliferation of human peripheral blood mononuclear cells in the presence of rhIL-2, aCD3 5 μg/ml (cpm ± DS) / Proliferation of human peripheral blood mononuclear cells in the presence of rhIL-2, aCD3 + Con A (cpm ± DS) / Proliferation of human peripheral blood mononuclear cells in the presence of rhIL-2, aCD3 + PHA (cpm ± DS): rhIL-2 100 UI/ml
Source text: Tests on Human Peripheral Blood Mononuclear Cells Material and Methods:
In order to study more deeply the effects of lactone on cell proliferation, we checked whether the effects described in the above section on cells of murine origin were specific to the cell type and the species or whether, on the other hand, these effects were xeno-independent. For this, we purified human peripheral blood mononuclear cells from healthy controls and we proceeded to study the possible effects of inhibition on the proliferative activity of peripheral blood mononuclear cells (CMSP) from humans, induced by different mitogenic agents acting alone and/or in costimulation with other mitogens and in the presence or absence of recombinant human interleukin 2 (rhIL-2).
Mitogens: Phytohaemaglutinin M (PHA) (Difco Lab., Detroit, Mich., USA), Concanavalin A (Con A, 2 μg/ml, Sigma Chemical Co., Mich., USA), Immobilised anti-CD3 (OKT3, 5 μg/ml, Ortho-mune, Orthodiagnostic System) and rhIL-2 (100 IU/ml, Hoffman-La Roche, N.J., USA).
All the reagents included in these tests were diluted in RPMI 1640 culture medium (Whitaker Bioproducts, Walkersville, USA) supplemented with 10% of decomplemented foetal calf serum (Biochrom K G, Berlin), L-glutamin (2 mM, Biochrom K G), Hepes (25 mM, Biochrom K G) and antibiotic (1% penicillin streptomycin, Difco Lab, Detroit, Mich., USA).
Also, all the mitogens were optimised in a dose response way in order to obtaining the maximum proliferative response after 5 days of culture.
Venous blood: The CMSP were obtained from venous blood extracted by antecubital venous puncture. 50 ml of blood were extracted to which were added 50 U of calcic heparin and the mixture was diluted 1/1 (vol/vol) with PSS.
Human mononucleated cells: In order to isolate the CMSP they were proceeded to be separated from the rest of the blood components by means of the formation of a density gradient on Ficoll. The cells thus obtained are resuspended in PSS and centrifuged at 400×g for 10 minutes (washing process) and then resuspended in PSS. This operation is repeated three times. In the last of them, PSS is replaced with complete medium.
General culture conditions: All cell cultures were developed under conditions of sterility in a vertical laminar flow chamber, using single-use sterile materials or materials sterilised in an autoclave or with ethylene oxide. The cultures were conserved in a stove kept at a temperature of 37° C., in an atmosphere with 5% CO2 and relative humidity of 95%. In the various experiments performed, the purified CMSP cell preparations were incubated in sterile dishes with 96 wells at concentrations of 5×10^4 cells/well (200 μl) in the presence of different concentrations of different mitogens for 5 days.
The method used for quantifying the cell proliferation was analysis of the incorporation of ^3H-thymidine (^3H-T) into DNA synthesised de novo, detecting the emission of β radiation from the dry extracts of cell cultures to which the tritiated base had been added before its finalisation and collection. The synthesis of DNA was done in triplicate on sterile dishes with 96 flat-bottom wells.
From 20 to 24 hour prior to terminating the cell culture, 1 μCi of ^3H-T was added to each well containing medium; the cultures were gathered by suction through a glass filter, using a Skatron culture collector for this.
The synthesis of DNA has been expressed in counts per minute (cpm). Each test was conducted in triplicate, with those data having a variability greater than 10% compared to the mean of the triplicate being rejected, since they could indicate a technical error or contamination in the culture. The cultures were carried out at a constant cell volume per well, as well as at a constant volume of 200 μl.
Negative Control: Cells in the Presence of Complete Culture Medium
Positive Control: Stimulation of Cells without the Presence of Lactone […]

With `C=C1C(=O)OC(CCc2ccc(OC)cc2)C1C` (stereo not drawn) [lactone] the “Proliferation of human peripheral blood mononuclear cells, Con A 2 μg/ml (cpm ± DS)” value (Lactone 0.0001 μg/ml) was 75329 ± 9144 cpm, the “Proliferation of human peripheral blood mononuclear cells, Medium (cpm ± DS)” value (Lactone 0.0001 μg/ml) was 3175 ± 1574 cpm and the “Proliferation of human peripheral blood mononuclear cells, PHA 10 μg/ml (cpm ± DS)” value (Lactone 0.0001 μg/ml) was 76612 ± 15020 cpm. The “Proliferation of human peripheral blood mononuclear cells, aCD3 5 μg/ml (cpm ± DS)” value (Lactone 0.0001 μg/ml) was 44721 ± 4082 cpm, the “Proliferation of human peripheral blood mononuclear cells, aCD3 + Con A (cpm ± DS)” value (Lactone 0.0001 μg/ml) was 115090 ± 4133 cpm and the “Proliferation of human peripheral blood mononuclear cells, aCD3 + PHA (cpm ± DS)” value (Lactone 0.0001 μg/ml) was 105395 ± 375 cpm. The “Proliferation of human peripheral blood mononuclear cells in the presence of rhIL-2, Con A 2 μg/ml (cpm ± DS)” value (Lactone 0.0001 μg/ml) was 96972 ± 18274 cpm, the “Proliferation of human peripheral blood mononuclear cells in the presence of rhIL-2, Medium (cpm ± DS)” value (“Proliferation … of rhIL-2, Medium (cpm ± DS)” for short) (Lactone 0.0001 μg/ml) was 56451 ± 4965 cpm and the “Proliferation of human peripheral blood mononuclear cells in the presence of rhIL-2, PHA 10 μg/ml (cpm ± DS)” value (Lactone 0.0001 μg/ml) was 130524 ± 8929 cpm. The “Proliferation of human peripheral blood mononuclear cells in the presence of rhIL-2, aCD3 5 μg/ml (cpm ± DS)” value (Lactone 0.0001 μg/ml) was 87091 ± 7078 cpm, the “Proliferation of human peripheral blood mononuclear cells in the presence of rhIL-2, aCD3 + Con A (cpm ± DS)” value (Lactone 0.0001 μg/ml) was 154981 ± 15723 cpm and the “Proliferation of human peripheral blood mononuclear cells in the presence of rhIL-2, aCD3 + PHA (cpm ± DS)” value (“Proliferation … of rhIL-2, aCD3 + PHA (cpm ± DS)” for short) (Lactone 0.0001 μg/ml) was 133621 ± 12440 cpm. For the same molecule, the “Proliferation of human peripheral blood mononuclear cells, Con A 2 μg/ml (cpm ± DS)” value (Lactone 0.01 μg/ml) was 55503 ± 9023 cpm, the “Proliferation of human peripheral blood mononuclear cells, Medium (cpm ± DS)” value (Lactone 0.01 μg/ml) was 2867 ± 1527 cpm and the “Proliferation of human peripheral blood mononuclear cells, PHA 10 μg/ml (cpm ± DS)” value (Lactone 0.01 μg/ml) was 71092 ± 3555 cpm. For the same molecule, the “Proliferation of human peripheral blood mononuclear cells, aCD3 5 μg/ml (cpm ± DS)” value (Lactone 0.01 μg/ml) was 40378 ± 219 cpm, the “Proliferation of human peripheral blood mononuclear cells, aCD3 + Con A (cpm ± DS)” value (Lactone 0.01 μg/ml) was 93139 ± 3070 cpm and the “Proliferation of human peripheral blood mononuclear cells, aCD3 + PHA (cpm ± DS)” value (Lactone 0.01 μg/ml) was 67011 ± 8270 cpm. For the same molecule, the “Proliferation of human peripheral blood mononuclear cells in the presence of rhIL-2, Con A 2 μg/ml (cpm ± DS)” value (Lactone 0.01 μg/ml) was 54196 ± 80 cpm, the “Proliferation … of rhIL-2, Medium (cpm ± DS)” value (Lactone 0.01 μg/ml) was 42568 ± 8631 cpm and the “Proliferation of human peripheral blood mononuclear cells in the presence of rhIL-2, PHA 10 μg/ml (cpm ± DS)” value (Lactone 0.01 μg/ml) was 106754 ± 698 cpm. For the same molecule, the “Proliferation of human peripheral blood mononuclear cells in the presence of rhIL-2, aCD3 5 μg/ml (cpm ± DS)” value (Lactone 0.01 μg/ml) was 39771 ± 3258 cpm, the “Proliferation of human peripheral blood mononuclear cells in the presence of rhIL-2, aCD3 + Con A (cpm ± DS)” value (Lactone 0.01 μg/ml) was 130949 ± 16623 cpm and the “Proliferation … of rhIL-2, aCD3 + PHA (cpm ± DS)” value (Lactone 0.01 μg/ml) was 94165 ± 15647 cpm. For the same molecule, the “Proliferation of human peripheral blood mononuclear cells, Con A 2 μg/ml (cpm ± DS)” value (Lactone 1 μg/ml) was 13294 ± 3395 cpm, the “Proliferation of human peripheral blood mononuclear cells, Medium (cpm ± DS)” value (Lactone 1 μg/ml) was 1805 ± 1870 cpm and the “Proliferation of human peripheral blood mononuclear cells, PHA 10 μg/ml (cpm ± DS)” value (Lactone 1 μg/ml) was 25118 ± 6642 cpm. The “Proliferation of human peripheral blood mononuclear cells, aCD3 5 μg/ml (cpm ± DS)” value (Lactone 1 μg/ml) was 1286 ± 255 cpm, the “Proliferation of human peripheral blood mononuclear cells, aCD3 + Con A (cpm ± DS)” value (Lactone 1 μg/ml) was 829 ± 484 cpm and the “Proliferation of human peripheral blood mononuclear cells, aCD3 + PHA (cpm ± DS)” value (Lactone 1 μg/ml) was 8689 ± 5361 cpm. The “Proliferation of human peripheral blood mononuclear cells in the presence of rhIL-2, Con A 2 μg/ml (cpm ± DS)” value (Lactone 1 μg/ml) was 71210 ± 5211 cpm, the “Proliferation … of rhIL-2, Medium (cpm ± DS)” value (Lactone 1 μg/ml) was 9548 ± 808 cpm and the “Proliferation of human peripheral blood mononuclear cells in the presence of rhIL-2, PHA 10 μg/ml (cpm ± DS)” value (Lactone 1 μg/ml) was 110507 ± 698 cpm. The “Proliferation of human peripheral blood mononuclear cells in the presence of rhIL-2, aCD3 5 μg/ml (cpm ± DS)” value (Lactone 1 μg/ml) was 36280 ± 77 cpm, the “Proliferation of human peripheral blood mononuclear cells in the presence of rhIL-2, aCD3 + Con A (cpm ± DS)” value (Lactone 1 μg/ml) was 66429 ± 9241 cpm and the “Proliferation … of rhIL-2, aCD3 + PHA (cpm ± DS)” value (Lactone 1 μg/ml) was 88220 ± 3174 cpm.
